One may read the EC50 as the concentration at which the effect is half-maximal. Broadly, the IC50 is the concentration at which inhibition is half-maximal. A higher IC50 goes with weaker potency.

The assay has as its system CEM cells HIV-1 protection, formazan growth assay. Briefly: NCI AIDS Antiviral Assay. Conditions: for IC50: measured here: growth of uninfected CEM cells. Summed up: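 Protection of CEM cells against HIV-1 measured as cell growth via soluble formazan read-out, with five concentrations tested on both infected and uninfected cells; failure to protect may reflect toxicity.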

“And” between values parts separate entries of the source, which are not always exact repeats. Identical values can stand only once. The source made the active and inactive calls.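 The calls were made as follows: active = compounds giving half or more protection of infected cells from virus-caused growth loss, again on retest; inactive = the rest.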

As for `O=C1CCC(=O)C(C(=O)CCC(=O)Nc2cccc(Cl)c2)C1` (configuration not stated), the EC50 is more than 562 µM and the IC50 is more than 562 µM. In the case of `COc1ccc2c(c1)C(=O)C13CC(C(=O)N(C)C)C(OC(C)=O)(CCC21)C3` (configuration not stated), the EC50 was more than 95.5 µM and the IC50 is more than 95.5 µM.

Turning to `C/C(=C/OS(=O)(=O)C(F)(F)F)c1ccccc1`, the EC50 is more than 200 µM and the IC50 turned out to be 57.5 µM. For `CC1(C)C(=O)/C(=C/c2ccccc2)C(C)(C)C1(C)C`, the result was inactive. On to `NC(=O)c1ncn(CC2(CO)CCC2)n1`, for which the EC50 was more than 200 µM and the IC50 is more than 200 µM. Take `CC1(C)C2CCC(CN)(C2)C1N` (configuration not stated): the EC50 is more than 200 µM and the half-maximal inhibitory concentration (IC50) was more than 200 µM. Consider `Cc1[nH]c(=O)nc(CC(O)(c2ccccc2)c2ccccc2)c1-c1ccccc1`, for which the EC50 is more than 2.75 µM and the IC50 is more than 2.75 µM. As to `Cc1cc2c(C)cc(=O)[nH]c2cc1N`, the EC50 is more than 200 µM and the IC50 was more than 200 µM.

For `c1c2c(cc(-n3nnc4c3CCCCCC4)c1-n1nnc3c1CCCCCC3)CCCCCC2`, the EC50 was more than 21.9 µM and the 50% inhibitory concentration (IC50) was more than 21.9 µM.

`CCOC(=O)/C(Cl)=C(\C)Nc1nc2c(ccc3ccccc32)s1`: the EC50 is more than 100 µM and the IC50 was found to be 49 µM. `Cc1nn2c(nc1=O)sc1ccc3ccccc3c12`: the EC50 was more than 83.2 µM and the IC50 was more than 83.2 µM. As for `Nc1nc(N)c(-c2ccccc2)c(C(=O)Nc2ccc(Cl)c(Cl)c2)n1`, the EC50 is more than 479 µM.

As for `CN1Cc2ccccc2S(=O)(=O)n2cccc2C1=O`, the EC50 was more than 200 µM and the IC50 was more than 200 µM. For the compound `N#CC1=C(N2CCOCC2)CCC1`, the EC50 is more than 200 µM and the IC50 was more than 200 µM. For the compound `CCOC(=O)c1c(-c2cccc3ccccc23)c(C#N)c(=S)n(C2OC(COC(C)=O)C(OC(C)=O)C(OC(C)=O)C2OC(C)=O)c1C` (configuration not stated), the EC50 was more than 200 µM and the IC50 amounted to 7.76 µM. `CN(C)C=Nc1c2ccccc2nc2ccccc12`: the EC50 was more than 200 µM and the IC50 is 2.45 µM. For the compound `CNS(=O)(=O)NN(C)S(=O)(=O)c1ccc(Cl)cc1`, the EC50 is more than 209 µM and the IC50 amounted to 204 µM. As for `Nc1ncnc2c1ncn2C1C[C@H](O)[C@]2(CO)C[C@H]12` (some centres not stated), the EC50 is more than 50.1 µM and the IC50 is more than 50.1 µM. Consider `CC1(C(=O)NCCN(CCNC(=O)C2(C)CC3(C)CC(C)(C2)C(=O)NC3=O)CCNC(=O)C2(C)CC3(C)CC(C)(C2)C(=O)NC3=O)CC2(C)CC(C)(C1)C(=O)NC2=O` (configuration not stated), for which the outcome was inactive. Turning to `CC(C)(C)C(=O)Cc1cc2c(cc1C(=O)O)S(=O)(=O)NC(C(C)(C)C)=C2`, the EC50 is more than 479 µM and the half-inhibitory concentration (IC50) was more than 479 µM. In the case of `CC(=O)c1ccc(N=NN2CCCC2)cc1`, the EC50 was more than 200 µM and the IC50 stood at 89.1 µM. On to `C=CCCCCCCCCCP(=O)(c1ccccc1)c1ccc2c(c1)OCCOCCOCCOCCO2` (configuration not stated), for which the EC50 is more than 200 µM and the IC50 stood at 1.7 µM.

Turning to `COC(=O)C1=C2CCC(=O)[C@@]2(C)CC(C)=C(C)C1`, the result was inactive.

`O=[N+]([O-])c1ccc(CS(=O)(=O)c2ccccc2)cc1`: the result was inactive. On to `CC1OC(O[C@@H]2C=C3CC[C@@H]4[C@H](CC[C@]5(C)[C@@H](c6ccc(=O)oc6)CC[C@]45O)[C@@]3(C)CC2)C(O)C(O)C1O` (some centres not stated), for which the EC50 was more than 2 µM and the 50% inhibitory concentration (IC50) came out at 0.00468 µM. For `Cn1c(=O)[nH]c2nncnc2c1=O`, in that order: more than 200 µM and 31.6 µM. As for `CC(C)(CO)N=Cc1ccccc1[O-].CC(C)(CO)N=Cc1ccccc1[O-].[Co+2]`, the EC50 was more than 151 µM and the 50% inhibitory concentration (IC50) is more than 151 µM.

`NC(=O)C(=CN1C(=O)/C(=C\c2cccc(O)c2)SC1=S)C(N)=O`: the EC50 was more than 200 µM and the IC50 was 107 µM. In the case of `O=C1CCCC(=O)N1CCc1c[nH]c2ccccc12`, the result was inactive. For the compound `Oc1ccccc1-c1nc2sc(-c3ccccc3O)nc2s1`, the EC50 was more than 200 µM and the IC50 was determined as 132 µM. In the same order, the values of `COC(=S)SSC(=S)NCCNC(=S)SSC(=S)OC` are more than 200 µM and 9.55 µM. Consider `CS(=O)(=O)CCOC(=O)ON1C(=O)CCC1=O`, for which the EC50 is more than 200 µM and the 50% inhibitory concentration (IC50) stood at 26.9 µM. Consider `Cc1nc(=O)n2c(c1C(=O)Nc1ccc(Cl)cc1)NCCC2`, for which the result was inactive. With `O=S1(=O)C(c2ccccc2)C(N2CCCCC2)C1C1CC2c3ccccc3C1c1ccccc12` (configuration not stated), the EC50 was more than 200 µM and the half-maximal inhibitory concentration (IC50) was found to be 8.32 µM.

In the case of `Cc1cc(C)c(NC(=O)c2ccccc2)c(=O)o1`, the EC50 is more than 200 µM and the IC50 is more than 200 µM. With `Nc1ncnc2c1N=C(c1ccccc1)CC(c1ccccc1)N2` (configuration not stated), the EC50 is more than 200 µM and the IC50 is more than 200 µM. For `CC(=O)C1(C(=O)C(=[N+]=[N-])S(=O)(=O)c2ccccc2)CC1`, the EC50 is more than 851 µM and the half-inhibitory concentration (IC50) was found to be 8.32 µM. As for `COc1ccc(N=Nc2c(C)c(C#N)c(=S)n(C3OC(CO)C(O)C(O)C3O)c2C)cc1` (configuration not stated), the EC50 was more than 200 µM and the IC50 stood at 27.5 µM.

In the case of `O=C(Nc1ccccn1)NC1CCCCC1`, the EC50 was more than 200 µM and the IC50 stood at 195 µM.

On to `c1ccc(N=C(Nc2ccccc2)N2CCCCC2)cc1`, for which the EC50 was more than 200 µM and the IC50 amounted to 77.6 µM. In the same order, the values of `O=C(CC1CCN(C(=O)c2ccccc2)C(Cc2c[nH]c3ccccc23)C1O)N1CCCC1` (configuration not stated) are more than 200 µM and more than 200 µM. Take `CCn1c(=O)c2c3ccc(OC)cc3[nH]c2c2ccc(OC)cc21`: the EC50 was more than 200 µM and the half-inhibitory concentration (IC50) was 56.2 µM. Take `C=C(C)C1CCC2(C(=O)O)CCC3(C)C(CCC4C5(C)CCC(O)C(C)(C)C5CCC43C)C12` (configuration not stated): the EC50 was more than 200 µM and the IC50 came to 66.1 µM. Consider `NNC(=S)N/N=C(/C(=O)Nc1ccc(Cl)c(Cl)c1)C(C1OC(=O)c2ccccc21)[N+](=O)[O-]` (configuration not stated), for which the EC50 is more than 501 µM and the half-maximal inhibitory concentration (IC50) was 257 µM. On to `Cc1cccc(C)c1NC(=O)CCCC(=O)C(C#N)c1ccccc1` (configuration not stated), for which the EC50 was more than 741 µM and the IC50 is more than 741 µM. Consider `COc1cc2c(cc1OC)C(O)[C@H](Br)C(C)(C)O2` (some centres not stated), for which the EC50 is more than 158 µM and the IC50 was 89.1 µM.

For the compound `N#CC(Nc1ccccc1)c1ccc(C(C#N)Nc2ccccc2)cc1` (configuration not stated), the EC50 is more than 200 µM and the IC50 came out at 9.55 µM. For `O=c1c(Cl)cc2nc3ccccc3sc-2c1Cl`, in that order: more than 9.55 µM and 8.91 µM. For `C[C@]12CC[C@H](OC(=O)CCC(=O)O)CC1=CC[C@@H]1C2CC[C@@]2(C)C1CC[C@@H]2c1ncc(-c2ccccc2)s1` (some centres not stated), in that order: more than 9.33 µM and more than 9.33 µM. Consider `CCCCCC1CC2=C(C(=O)OC2=O)C(O)C(O)(CCCC)CC2=C1C(=O)OC2=O` (configuration not stated), for which the EC50 was more than 85.1 µM and the IC50 is more than 85.1 µM. On to `BrC1=CC2C(C3C=CC2(Br)C32OCCO2)C12OCCO2` (configuration not stated), for which the EC50 was more than 166 µM and the IC50 was more than 166 µM. As to `CC1C2(C)OCC(C#N)(C(=N)O2)C1(C#N)C#N` (configuration not stated), the EC50 is more than 200 µM and the IC50 was determined as 20.9 µM.

Take `C/C(O)=C(\C=N\C(=S)N=Nc1c(O)[nH]c2ccccc12)C(=O)Nc1ccccc1C`: the EC50 was more than 200 µM and the IC50 is more than 200 µM. As to `Cc1cccc(NC(=O)Nc2ccccc2Cl)n1`, the EC50 was more than 200 µM and the IC50 was more than 200 µM. Turning to `CC1(C)CC(=O)C2=C(C1)Nc1ccc(Cl)cc1NC2c1ccccc1` (configuration not stated), the EC50 is more than 200 µM and the IC50 came to 75.9 µM. With `COc1ccc(-c2c(C)c(C)nc(Cl)c2C#N)c(OCc2ccccc2)c1OC`, the outcome was inactive. Regarding `CCCCCCCCCCCCCCOCCS(=O)(=O)O`, the EC50 was more than 200 µM and the IC50 stood at 52.5 µM. For `COc1cc2c(cc1Oc1c(O)c(OC)cc3c1C(C)N(C)CC3)C(C)N(C)CC2` (configuration not stated), the EC50 was more than 200 µM and the half-maximal inhibitory concentration (IC50) is more than 200 µM. Consider `O=C(O)C1=CC=CC(=C(c2ccc(O)c(C(=O)O)c2)c2ccc(O)c(C(=O)O)c2)C1=O`, for which the EC50 is more than 380 µM and the concentration for half-maximal inhibition (IC50) was more than 380 µM. For `O=c1[nH]c(N/N=C\C(O)C(O)C(O)CO)nc2ccccc12` (configuration not stated), the EC50 is more than 200 µM; the IC50 was > 200 µM and 97.7 µM.

As to `CCOC(=O)/C=C(/N=P(c1ccccc1)(c1ccccc1)c1ccccc1)C(F)(F)F`, the EC50 was more than 200 µM and the IC50 is 13.8 µM. For `CNc1ncnc2c1ncn2C1OC(CO)CC1F` (configuration not stated), in that order: 158 µM and more than 200 µM. For `CCOC(=O)N/N=C(\CC)OCC`, the EC50 was more than 200 µM and the 50% inhibitory concentration (IC50) was more than 200 µM. Consider `COc1nc2c(c(=O)n1C)NC(C(O)C(O)CO)C=N2` (configuration not stated), for which the EC50 is 182 µM and 174 µM; the IC50 was more than 200 µM. Consider `CC(=O)OC1=C2CC[C@@H]3C(CC[C@@]4(C)C3CC[C@@H]4OC(C)=O)[C@@]2(C)CC(C#N)C1=O` (some centres not stated), for which the result was inactive.

Take `Cc1cccc(C(C)(C)C)c1NC(=O)CC1C(=O)Nc2ccccc2S1(=O)=O` (configuration not stated): the EC50 was more than 1.86 µM and the concentration for half-maximal inhibition (IC50) was more than 1.86 µM. Consider `S=c1sc2ccccc2n1CN1CCCC1`, for which the EC50 is more than 200 µM and the IC50 was 102 µM. On to `CC(C)(C)C1=CC(=NC(=O)c2cc([N+](=O)[O-])cc([N+](=O)[O-])c2)C=C(C(C)(C)C)C1=O`, for which the EC50 was more than 6.03 µM and the half-maximal inhibitory concentration (IC50) is more than 6.03 µM. Regarding `Cc1sc(N=Nc2c(O)[nH]c3ccccc23)nc1-c1ccccc1`, the EC50 was more than 200 µM and the IC50 came out at 43.7 µM. For the compound `Cc1nc2ccccc2c(=O)n1-c1ccccc1Br`, the EC50 was more than 214 µM and the IC50 is more than 214 µM. As for `CSc1c(C#N)c2n(c3ccccc3[n+]2C)c2ncccc12`, the EC50 was more than 200 µM and the IC50 came to 3.31 µM. For the compound `OC1(c2ccccc2)CSC2=Nc3ccccc3C3CCN1N23` (configuration not stated), the EC50 is more than 200 µM and the IC50 was 36.3 µM. Regarding `Cn1cnc([N+](=O)[O-])c1SSc1c([N+](=O)[O-])ncn1C`, the EC50 was more than 200 µM and the IC50 was more than 200 µM.
